Source: patent publication US12031897B2, “Target-locking single-molecule nanoscopy” (Memorial Sloan Kettering Cancer Center, priority 2019, dated 2024)

Test system: Pol II (SiR-Rpb1) at the CMV mini-gene transcription site
Test: SiR-Rpb1 (Pol II) dynamics at the CMV mini-gene after inhibitor addition (target-locking)
Format: cell-based, human
Settings: for SiR-Rpb1 exponential decay time (ii) individual target-locked transcription site traces: 10 μM flavopiridol or 10 μM triptolide, mean±S.D.; for SiR-Rpb1 exponential decay time (i) fit parameters of total signal from different transcription sites: after adding 10 μM flavopiridol or 10 μM triptolide, target-locking
Description: To visualize Pol II, example implementations may express a SNAP-tagged Rpb1 Pol II subunit (SNAP-Rpb1). […] Importantly, the brightness and gradual SiR-Rpb1 photobleaching within these foci (see below) indicates multiple Pol II molecules accumulating at the mini-gene. Previously, it was unclear to what extent transcription is carried out by individual, solitary Pol II molecules, or whether it involves multiple Pol II molecules. When Pol II clustering occurs, as typically little information on genomic position and promoter activity is simultaneously available, it has been hard to establish whether and how this phenomenon relates to transcription. Our observations reveal that focal Pol II accumulation and transcription activity from a specific promoter at a specific genomic locus are spatially and temporally linked.
Regarding target-locking probes nanometer Pol II organization at the transcription site, motion blur and bleaching during scanning distorts the 3D images, limits the observation times and makes quantifying and tracking Pol II at the transcription site, with single-molecule sensitivity and higher spatio-temporal resolution, extremely difficult (FIGS. 11D, 11E). To eliminate scanning, example implementations may develop a target-locking system that obtains single-shot spatial information (FIG. 10A) and actively stabilizes the transcription site at the (common) excitation maximum/STED zero. With feedback loop speeds up to 30 fps, tdPCP-EGFP is locked within ˜30 nm root-mean-square (r.m.s.) from the desired set-point (FIGS. 4E, 4F, 11F). Target-locking at the excitation maximum provides the same total photon counts as scanning, but at orders-of-magnitude lower power, improving photostability. […]
Pol II closely follows the fate of nascent transcripts: SiR-Rpb1 accumulation gradually decreases after inhibitor addition (FIGS. 3B, 3C and 13H decay times 160-240 sec). […] The good agreement with decay rates measured optically further supports the notion that the accumulated SiR-Rpb1 signal reflects multiple elongating/terminating Pol IIs.
For active feedback control, example implementations may adopt a custom LabVIEW program, optimized for fast CCD acquisition (via, e.g., detection system 150), real-time image analysis and active microscope stabilization using nanopositioning equipment (e.g., platform 190). The images obtained from the Ixon3 897 detector (e.g., detection system 150) were analyzed on the fly by non-linear least-squares fitting of a 21×21 pixel ROI to a 2D Gaussian peak function implemented in LabVIEW. […] The coordinates returned by the 2D Gaussian peak fit were passed onto a PID controller that calculated the desired position correction that was commanded to the nanopositioning stage controller. […]

Structure (SMILES)	SiR-Rpb1 exponential decay time (ii) individual target-locked transcription site traces	SiR-Rpb1 exponential decay time (i) fit parameters of total signal from different transcription sites
CN1CC[C@H](c2c(O)cc(O)c3c(=O)cc(-c4ccccc4Cl)oc23)[C@H](O)C1 [flavopiridol]	162 ± 71 s	238 ± 49 s
CC(C)[C@]12O[C@H]1[C@@H]1O[C@]13[C@]1(O[C@H]1C[C@H]1C4=C(CC[C@@]13C)C(=O)OC4)[C@@H]2O [triptolide]	242 ± 148 s	239 ± 24 s
